Data from the NIST ThermoML archive (doi:10.1021/je050389b).
± gives the expanded uncertainty stated by the source.

Key:
[1] = Liquid
[2] = xn = mol fraction of the nth substance listed; conditions: Liquid, x2 = 0

| Structure (SMILES) | viscosity ([1]; 288.15 K, 100.5 kPa) | mass density ([1]; 288.15 K, 101 kPa) | viscosity ([1]; 298.15 K, 100.5 kPa) | mass density ([1]; 298.15 K, 101 kPa) | viscosity ([1]; 308.15 K, 100.5 kPa) | mass density ([1]; 308.15 K, 101 kPa) | viscosity ([1]; 318.15 K, 100.5 kPa) | mass density ([1]; 318.15 K, 101 kPa) | viscosity ([2]; 288.15 K, 100.5 kPa) | viscosity ([2]; 298.15 K, 100.5 kPa) | viscosity ([2]; 308.15 K, 100.5 kPa) | viscosity ([2]; 318.15 K, 100.5 kPa) | mass density ([2]; 288.15 K, 101 kPa) | mass density ([2]; 298.15 K, 101 kPa) | mass density ([2]; 308.15 K, 101 kPa) | mass density ([2]; 318.15 K, 101 kPa) | other results |
| --- | --- | --- | --- | --- | --- | --- | --- | --- | --- | --- | --- | --- | --- | --- | --- | --- | --- |
| CCCC(=O)OCCC(C)C [3-methylbutyl butanoate] | 1.317 ± 0.019 mPa·s | 867.72 ± 0.32 kg/m3 | 1.111 ± 0.018 mPa·s | 858.69 ± 0.32 kg/m3 | 0.952 ± 0.016 mPa·s | 849.62 ± 0.32 kg/m3 | 0.827 ± 0.016 mPa·s | 840.55 ± 0.32 kg/m3 | – | – | – | – | – | – | – | – | – |
| CC(=O)OCCC(C)C [3-methylbutyl ethanoate] | 0.94 ± 0.016 mPa·s | – | 0.804 ± 0.015 mPa·s | – | 0.704 ± 0.015 mPa·s | – | 0.627 ± 0.014 mPa·s | – | – | – | – | – | – | – | – | – | mass density ([1]; 288.15 K, 100.5 kPa): 877.72 ± 0.36 kg/m3; mass density ([1]; 298.15 K, 100.5 kPa): 867.91 ± 0.36 kg/m3; mass density ([1]; 308.15 K, 100.5 kPa): 858.07 ± 0.36 kg/m3; mass density ([1]; 318.15 K, 100.5 kPa): 848.17 ± 0.36 kg/m3 |
| CCO [ethanol] | 1.337 ± 0.019 mPa·s | 793.6 ± 0.23 kg/m3 | 1.105 ± 0.017 mPa·s | 785 ± 0.24 kg/m3 | 0.921 ± 0.016 mPa·s | 776.31 ± 0.24 kg/m3 | 0.771 ± 0.015 mPa·s | 767.44 ± 0.25 kg/m3 | – | – | – | – | – | – | – | – | mass density ([1]; 288.15 K, 100.5 kPa): 793.6 ± 0.23 kg/m3; mass density ([1]; 298.15 K, 100.5 kPa): 785 ± 0.24 kg/m3; mass density ([1]; 308.15 K, 100.5 kPa): 776.31 ± 0.24 kg/m3; mass density ([1]; 318.15 K, 100.5 kPa): 767.44 ± 0.25 kg/m3 |
| CCO [ethanol] + CC(=O)OCCC(C)C | – | – | – | – | – | – | – | – | 1.337 ± 0.019 mPa·s | 1.105 ± 0.017 mPa·s | 0.921 ± 0.016 mPa·s | 0.771 ± 0.015 mPa·s | – | – | – | – | mass density ([2]; 288.15 K, 100.5 kPa): 793.6 ± 0.23 kg/m3; mass density ([2]; 298.15 K, 100.5 kPa): 785 ± 0.24 kg/m3; mass density ([2]; 308.15 K, 100.5 kPa): 776.31 ± 0.24 kg/m3; mass density ([2]; 318.15 K, 100.5 kPa): 767.44 ± 0.25 kg/m3 |
| CCO [ethanol] + CCCC(=O)OCCC(C)C | – | – | – | – | – | – | – | – | 1.337 ± 0.019 mPa·s | 1.105 ± 0.017 mPa·s | 0.921 ± 0.016 mPa·s | 0.771 ± 0.015 mPa·s | 793.6 ± 0.23 kg/m3 | 785 ± 0.24 kg/m3 | 776.31 ± 0.24 kg/m3 | 767.44 ± 0.25 kg/m3 | – |
| CCO [ethanol] + CCCCCC(=O)OCC | – | – | – | – | – | – | – | – | 1.337 ± 0.019 mPa·s | 1.105 ± 0.017 mPa·s | 0.921 ± 0.016 mPa·s | 0.771 ± 0.015 mPa·s | 793.6 ± 0.23 kg/m3 | 785 ± 0.24 kg/m3 | 776.31 ± 0.24 kg/m3 | 767.44 ± 0.25 kg/m3 | – |
| CCO [ethanol] + CCCCCCCC(=O)OCC | – | – | – | – | – | – | – | – | 1.337 ± 0.019 mPa·s | 1.105 ± 0.017 mPa·s | 0.921 ± 0.016 mPa·s | 0.771 ± 0.015 mPa·s | 793.6 ± 0.23 kg/m3 | 785 ± 0.24 kg/m3 | 776.31 ± 0.24 kg/m3 | 767.44 ± 0.25 kg/m3 | – |
| CCO [ethanol] + CCOC(=O)Cc1ccccc1 | – | – | – | – | – | – | – | – | 1.337 ± 0.019 mPa·s | 1.105 ± 0.017 mPa·s | 0.921 ± 0.016 mPa·s | 0.771 ± 0.015 mPa·s | 793.6 ± 0.23 kg/m3 | 785 ± 0.24 kg/m3 | 776.31 ± 0.24 kg/m3 | 767.44 ± 0.25 kg/m3 | – |
| CCO [ethanol] + CCOC(=O)c1ccccc1 | – | – | – | – | – | – | – | – | 1.337 ± 0.019 mPa·s | 1.105 ± 0.017 mPa·s | 0.921 ± 0.016 mPa·s | 0.771 ± 0.015 mPa·s | 793.6 ± 0.23 kg/m3 | 785 ± 0.24 kg/m3 | 776.31 ± 0.24 kg/m3 | 767.44 ± 0.25 kg/m3 | – |
| CCOC(=O)c1ccccc1 [ethyl benzoate] | 2.444 ± 0.028 mPa·s | 1050.78 ± 0.17 kg/m3 | 1.971 ± 0.024 mPa·s | 1041.42 ± 0.17 kg/m3 | 1.624 ± 0.021 mPa·s | 1032.07 ± 0.17 kg/m3 | 1.368 ± 0.019 mPa·s | 1022.73 ± 0.16 kg/m3 | – | – | – | – | – | – | – | – | – |
| CCCCCC(=O)OCC [ethyl hexanoate] | 1.102 ± 0.017 mPa·s | 875.64 ± 0.22 kg/m3 | 0.94 ± 0.016 mPa·s | 866.29 ± 0.22 kg/m3 | 0.814 ± 0.015 mPa·s | 856.91 ± 0.23 kg/m3 | 0.711 ± 0.015 mPa·s | 847.5 ± 0.23 kg/m3 | – | – | – | – | – | – | – | – | – |
| CCCCCCCC(=O)OCC [ethyl octanoate] | 1.697 ± 0.022 mPa·s | 870.79 ± 0.28 kg/m3 | 1.411 ± 0.02 mPa·s | 862.15 ± 0.29 kg/m3 | 1.193 ± 0.018 mPa·s | 853.52 ± 0.29 kg/m3 | 1.027 ± 0.017 mPa·s | 844.87 ± 0.29 kg/m3 | – | – | – | – | – | – | – | – | – |
| CCOC(=O)Cc1ccccc1 [ethyl phenylacetate] | 3.002 ± 0.035 mPa·s | 1036.35 ± 0.34 kg/m3 | 2.384 ± 0.028 mPa·s | 1026.96 ± 0.33 kg/m3 | 1.948 ± 0.024 mPa·s | 1017.6 ± 0.33 kg/m3 | 1.624 ± 0.022 mPa·s | 1008.26 ± 0.33 kg/m3 | – | – | – | – | – | – | – | – | – |
